From patent US5773236A, “Assay for glutathiane transferase using polyhaloaryl-substituted reporter molecules” (Molecule Probes, Inc., priority 1997, dated 1998)

Columns and labels:
β-galactosidase = experiment: Reactivity with thiol groups of proteins (Example 51); assay type: biochemical
Protocol: To test the specificity of the Compound 1 reaction with GSH versus thiol-containing proteins, β-galactosidase (a protein that has several free thiols) is dissolved at 5 mg/mL in deoxygenated 0.1M phosphate, 0.1M NaCl, pH 7.5, and reacted under anaerobic conditions with 5-(pentafluorobenzoylamino)fluorescein diacetate (Compound 4, Example 3) or Compound 1 dissolved at 10 mg/mL in DMSO at a molar ratio of the reagent to protein of 15. This assay is performed both in the presence and absence of 30 mM N-ethyl maleimide (NEM) as an effective thiol-blocking reagent. The reactions are incubated at room temperature for 1 hour, stopped by the addition of hydroxylamine, pH 9 to a final concentration of 0.15M, and incubated for 2 more hours to hydrolyze the acetate groups. […] Consequently, no reaction of either Compound 4 or Compound 1 with β-galactosidase is detected under the described conditions.

[1] = tested on: glutathione transferase (GST); experiment: Reactivity with glutathione catalyzed by glutathione transferase, TLC (Example 50); assay type: biochemical
Protocol: The suitability of Compound 1 (Example 1) and 5-(pentachlorobenzoylamino)fluorescein (Compound 48) as substrates for glutathione transferase (GST) in the presence of excess glutathione (GSH) is tested in vitro as follows: 5 mM GSH, 0.5 mM substrate (Compound 1 or Compound 48) and 20 micrograms GST (Sigma #G-6511, 70 units/mg) are combined in 0.1M phosphate buffer, pH 8.0, for 1 hour at 37° C. The reaction is terminated by spotting approximately 3 μL on silica gel TLC plates. The plate is developed using 1-butanol: methanol: water (3:1:1). […] Analysis of the reaction mixture by HPLC as in Example 52 confirms that the reaction product of Compound 1 with GSH is identical to the authentic Compound 1-GSH adduct as prepared in Example 45 (Compound 45).

GST [2] = experiment: HPLC analysis of the in vitro reaction mixture (Example 52); assay type: biochemical; details: with GST, absorbance at 500 nm
Protocol: To determine whether a compound is a selective substrate for glutathione transferase, a 2 mM ethanol stock solution of a polyhalogenated derivative (for example the series of butylbenzamides described in Example 49), reduced glutathione (phosphate buffer stock solution, 5 mM) and glutathione S-transferase (phosphate buffer stock solution, 1 unit/mL) are incubated at 25° C. in the mixture of 98% 0.1M K2 HPO4 -KH2 PO4 buffer (pH7.5) that contains 1 mM EDTA and 2% ethanol for 2 h. The reaction is then stopped by adding 10% H2 O2.
Reaction mixtures with and without GST using Compound 1 as the substrate, are prepared as described in Example 48. The solutions are mixed overnight with three volumes of ethyl acetate followed by centrifugation at 15,000×g for 30 min to separate the organic and aqueous layers. HPLC analysis using a Rainin HPLC equipped with a C18, 5 μm, 100 Å, 4.6×250 mm MICROSORB-MV reverse phase column. Products are separated in 30 min with a gradient of 5% to 95% solvent B in Solvent A at a flow rate of 1 mL/min, where solvent A is 0.1M triethylammonium acetate, pH 7.0, and solvent B is acetonitrile (see FIG. 1). Products are detected by reading the absorbance at 500 nm. Peaks are identified and, if desired, quantitated by comparing retention times with authentic samples of the glutathione adduct of Compound 45 (Example 45).

[3] = Quantitation of GSH in enzymatic reactions, TLC (Example 55); assay type: biochemical; details: 0.5 mM Compound 1, 10 μg/mL GST, limiting GSH, 1 hour, 37° C., UV hand lamp
Protocol: (§1) A set of reactions as described in Example 48 are performed using limiting concentrations of GSH (0.1 μM-1 mM), to measure the range of sensitivity of the assay for quantitating GSH. Alternatively, the reaction is performed using excess GSH and limiting GST (0.1 μg/mL-20 μg/mL) to determine the suitability of the method to detect and quantitate glutathione transferase activity of isolated enzymes or of GST-fusion proteins.
(§2) In one hour reactions at 37° C., using 0.5 mM Compound 1 (Example 1) as the substrate, 10 μg/mL GST and limiting GSH, the minimum amount of fluorescent Compound 1-GSH adduct (Compound 45) detectable by simple illumination with a long wavelength UV hand lamp corresponds to ~2-4 picomoles of GSH. When using excess GSH and variable amounts of GST, it is possible to detect by visible inspection the reaction product in solutions containing 5 μg/mL of enzyme spotted on TLC in 2 μL amounts: this spot corresponds to ~10 ng of GST. […] Quantitative measurement of the amount of product formed can be performed by either HPLC (Example 52), using a plate scanner (Example 53) or by extraction of the scraped silica gel spots into methanol or pH 8.0 buffer and measurement of the fluorescence against that of a series of dilutions of the authentic adduct (Example 45) in the same buffer using a fluorometer or microplate reader.

GSH in BPAE cell lysate = experiment: Determination of GSH in cell extracts (Example 56); assay type: biochemical, Bovine; details: 0.2 mM Compound 1, 5 μg GST, 2 hours, 37° C.; FIG. 3
Protocol: (§3) Cultures of BPAE cells are trypsinized, pelleted, washed once in PBS and resuspended in 200 μL of distilled water in numbers from 200 to 1,000,000. The cells are lysed by repeated freezing and thawing and spun for 10 min. in a microfuge to eliminate the insoluble particles from the lysate, which contains both GSH and GST.
To 150 μL of the lysate are added 5.5 μL of 1.8M MOPS pH 7.5, Compound 1 at the final concentration of 0.2 mM, 5 μg GST and distilled water to obtain the final volume of 200 μL. The reaction mixtures are incubated for 2 hours at 37° C. and analyzed by TLC by spotting 2 μL of each sample and developing as described in Example 48. The spots corresponding to the product formed by the different amounts of cells, because of their endogenous GSH is quantitated on a plate scanner as described in Example 53. […] Quantitation of GSH can also be performed by separating the product from the reaction mixture by HPLC as in Example 52.

[4] = tested on: glutathione transferase (endogenous GST in BPAE cell lysates); experiment: Determination of GST activity in cell extracts (Example 56); assay type: biochemical, Bovine
Protocol: as §3
The assay for the amount of GST activity present in cell lysates (endogenous GST) is performed using the same system as above with the exception that 5 mM GSH is added to the reaction mixture to ensure that there is a sufficient excess of GSH to saturate the enzyme. The reaction is incubated for one hour at 37° C. and 2 μL of each sample are spotted on TLC plates and developed as described in Example 48. Product formation is quantitated using a plate scanner as for GSH determination (as in Example 53). […] Similarly, this assay system can be used to quantitate GST-fusion proteins.

GST [5] = experiment: Quantitation of GST in enzymatic reactions, TLC (Example 55); assay type: biochemical; details: excess GSH, 2 μL spotted on TLC
Protocol: as §1, §2

CRE BAG 2 cells [6] = experiment: Peptidase substrates in live cells, fluorescence microscopy (Example 59); assay type: cell-based; details: 1 μM, 0.5 μM or 0.1 μM, 37° C., 30 minutes
Protocol: CRE BAG 2 cells obtained from American Type Culture Collection Co., Rockville, Md. are used. They are grown in a humidified atmosphere of 5% CO2 in D-MEM supplemented with 10% calf serum, 50 μg/mL gentamycin, 300 μg/mL L-glutamine and 10 mM HEPES, pH 7.4. 1 mM stock solutions of Compound 13-Leu (Example 13) and Compound 13-Arg substrate are prepared in DMSO. CRE BAG 2 cells are trypsinized, washed with phosphate-buffered saline, pH 7.2 and resuspended in 1 mL of the same buffer. 1 μL, 0.5 μL or 0.1 μL of the stock reagents is added to 1 mL of the cell suspension to obtain a final concentration of 1 μM, 0.5 μM or 0.1 μM. Incubation is carried out at 37° C. for 30 minutes. Cells are centrifuged to form a pellet, the supernatant is discarded and the cells are washed with PBS, pH 7.2 and suspended in the same buffer. Cells are mounted on slides and observed by fluorescence microscopy using filters optimized for fluorescein.

P3×63AG8 cells = experiment: Peptidase substrate in live cells, flow cytometry (Example 58); assay type: cell-based; details: 1 μM, 37° C., 30 minutes
Protocol: P3×63AG8 cells obtained from American Type Culture Collection Co., Rockville, Md. are used. They are grown in a humidified atmosphere of 5% CO2 in Dulbecco's modified Eagle's medium (D-MEM) supplemented with 10% calf serum, 50 μg/mL gentamycin, 300 μg/mL L-glutamine and 10 mM HEPES, pH 7.4. Compound 13-Arg (Prepared as in Examples 12 and 13) is dissolved at 1 mM in DMSO. The P3×63AG8 cells are trypsinized, washed with phosphate-buffered saline (PBS), pH 7.2 and resuspended in 1 mL of the same buffer. 1 μL of the stock reagent is added to 1 mL of the cell suspension to obtain a final concentration of 1 μM. Incubation is carried out at 37° C. for 30 minutes. Cells are centrifuged to form a pellet, the supernatant is discarded, the cells are washed twice with PBS, pH 7.2 and resuspended in 300 μL of the same buffer. Cells are analyzed by flow cytometry using the Becton-Dickinson FACS Vantage flow cytometer.

NIH-3T3 cells = experiment: Marker gene expression by flow cytometry, NIH-3T3 (Example 62); assay type: cell-based; details: 0.2 mM dye, 37° C., 30 minutes
Protocol: (§4) NIH-3T3 and CRE BAG2 cells are maintained as in Example 61. A 10 mM stock solution of (((3 -(2-pentafluorobenzoyl)amino)ethyl)amino)carbonyl)-umbelliferyl β-D-galactopyranoside (Compound 37; Example 37) is prepared in DMF. A 10 mM stock solution of 4-chloromethylcoumarin β-D-galactopyranoside (CMCG; Molecular Probes #D-2921) is prepared in a 1:1 mixture of DMSO and water. NIH-3T3 and CRE BAG2 cells are trypsinized, washed with phosphate buffered saline (PBS), pH 7.2 and resuspended in D-MEM with 10% BCS. To separate 1 mL cell suspensions are added the dye stock solutions to obtain final concentrations of 0.2 mM dye. Incubation is carried out at 37° C. for 30 minutes. Cells are centrifuged to form a pellet, the supernatant is discarded and the cells are washed twice with PBS, pH 7.2 and suspended in the same buffer. Cells are analyzed by flow cytometry using a Becton-Dickinson FACS Vantage flow cytometer. […] However, CRE BAG 2 cells stained with the Compound 37 show fluorescence that is greater than 25-fold that shown by autofluorescent control cells. For the CRE BAG 2 cells stained with CMCG, the fluorescence intensity is only 8-fold greater than that of the autofluorescent control cells.

CRE BAG 2 cells [7] = experiment: Marker gene expression by flow cytometry, CRE BAG 2 (Example 62); assay type: cell-based; details: 0.2 mM dye, 37° C., 30 minutes
Protocol: as §4

## O=C1OC2(c3ccc(O)cc3Oc3cc(O)ccc32)c2ccc(NC(=O)c3c(F)c(F)c(F)c(F)c3F)cc21 [Compound 1, 5-(pentafluorobenzoylamino)fluorescein]
β-galactosidase; molar ratio of reagent to protein 15
  fluorescent proteins formed, gel electrophoresis: no fluorescent proteins are formed
β-galactosidase; molar ratio of reagent to protein 15, pH 7.5, 1 hour, with and without 30 mM NEM
  reaction with β-galactosidase, TLC: no reaction
[1]; 5 mM GSH, 0.5 mM substrate, 20 micrograms GST, pH 8.0, 1 hour, 37° C.
  adduct formation with glutathione in presence of GST: forms a fluorescent adduct with glutathione
[1]; GST omitted
  reaction in control without GST: very low or no reaction
GST [2]
  products in aqueous layer by HPLC: two major peaks with elution times corresponding to the Compound 45 and to the unreacted Compound 1
[3]
  minimum amount of adduct detectable, corresponding to GSH: 2-4 picomoles
GSH in BPAE cell lysate
  plot of fluorescence intensity of Compound 1-GSH adduct versus number of cells (GSH): good linearity
[4]; 5 mM GSH, one hour, 37° C., FIG. 4
  usefulness for determination of GST activity in cell lysates: useful for the determination of the activity of GST activity in cells lysates
[4]; high concentration of both substrate and GSH
  adduct formation in absence of enzyme: a trace amount of adduct forms
GST [5]
  amount of GST corresponding to detectable spot: ~ 10 ng
GST [5]; variable GST, 1 hour, 37° C.
  enzyme (GST) concentration detectable by visible inspection: 5 µg/mL

## N=C(N)NCCC[C@H](N)C(=O)Nc1ccc2c(c1)Oc1cc(NC(=O)c3c(F)c(F)c(F)c(F)c3F)ccc1C21OC(=O)c2ccccc21 (stereo partly drawn) [Compound 13-Arg]
CRE BAG 2 cells [6]
  staining of cells, fluorescence microscopy: punctate green fluorescence associated with organelles
P3×63AG8 cells
  cell fluorescence (FL 1 channel): fluorescence levels greater than the cell's autofluorescence

## O=C(NCCNC(=O)c1cc2ccc(O[C@@H]3O[C@H](CO)[C@H](O)[C@H](O)[C@H]3O)cc2oc1=O)c1c(F)c(F)c(F)c(F)c1F [Compound 37, ((((3-(2-pentafluorobenzoyl)amino)ethyl)amino)carbonyl)umbelliferyl β-D-galactopyranoside]
NIH-3T3 cells
  fluorescence versus autofluorescent cells: do not show fluorescence greater than that observed for autofluorescent cells
CRE BAG 2 cells [7]
  fluorescence relative to autofluorescent control cells: greater than 25 fold
